From the supplement of paper PMC10307832

Columns and labels:
Test in all cases: relative viability (nuclei count vs DMSO), 5 days (fraction); higher = more cells survive
VX-11e + Foretinib = compound: CC1=CN=C(N=C1C2=CNC(=C2)C(=O)N[C@H](CO)C3=CC(=CC=C3)Cl)NC4=C(C=C(C=C4)F)Cl [VX-11e] + COc1cc2c(Oc3ccc(NC(=O)C4(C(=O)Nc5ccc(F)cc5)CC4)cc3F)ccnc2cc1OCCCN1CCOCC1 [Foretinib] (partner 0.25 µM)
Outline: (§1)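 Relative viability divides the nuclei count in treated wells by that in vehicle wells. Lung cancer cell lines were seeded in 1536-well plates, dosed by pin tool the next day, and fixed and stained after 5 days in one step with final 0.05% Triton X-100, 1% formaldehyde and 1 ug/ml Hoechst. Dosing was a single drug or a fixed anchor-drug dose plus five library-drug doses (not always all listed) in √10 steps, and values are medians of duplicate plates imaged at 4×.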

VX-11e + Alpelisib = compound: CC1=CN=C(N=C1C2=CNC(=C2)C(=O)N[C@H](CO)C3=CC(=CC=C3)Cl)NC4=C(C=C(C=C4)F)Cl [VX-11e] + Cc1nc(NC(=O)N2CCC[C@H]2C(N)=O)sc1-c1ccnc(C(C)(C)C(F)(F)F)c1 [Alpelisib] (partner 2 µM)
Outline: as §1

VX-11e + Olaparib = compound: CC1=CN=C(N=C1C2=CNC(=C2)C(=O)N[C@H](CO)C3=CC(=CC=C3)Cl)NC4=C(C=C(C=C4)F)Cl [VX-11e] + O=C(c1cc(Cc2n[nH]c(=O)c3ccccc23)ccc1F)N1CCN(C(=O)C2CC2)CC1 [Olaparib] (partner 8 µM)
Outline: as §1

VX-11e + Pemetrexed = compound: CC1=CN=C(N=C1C2=CNC(=C2)C(=O)N[C@H](CO)C3=CC(=CC=C3)Cl)NC4=C(C=C(C=C4)F)Cl [VX-11e] + Nc1nc2[nH]cc(CCc3ccc(C(=O)N[C@@H](CCC(=O)O)C(=O)O)cc3)c2c(=O)[nH]1 [Pemetrexed] (partner 0.2 µM)
Outline: as §1

| Cell Line | relative viability (VX-11e + Foretinib; first compound 0.04 µM) | relative viability (VX-11e + Foretinib; first compound 0.1265 µM) | relative viability (VX-11e + Foretinib; first compound 0.4 µM) | relative viability (VX-11e + Foretinib; first compound 1.265 µM) | relative viability (VX-11e + Foretinib; first compound 4 µM) | relative viability (VX-11e + Alpelisib; first compound 0.04 µM) | relative viability (VX-11e + Alpelisib; first compound 0.1265 µM) | relative viability (VX-11e + Alpelisib; first compound 1.265 µM) | relative viability (VX-11e + Alpelisib; first compound 4 µM) | relative viability (VX-11e + Olaparib; first compound 0.04 µM) | relative viability (VX-11e + Olaparib; first compound 0.1265 µM) | relative viability (VX-11e + Olaparib; first compound 0.4 µM) | relative viability (VX-11e + Olaparib; first compound 1.265 µM) | relative viability (VX-11e + Olaparib; first compound 4 µM) | relative viability (VX-11e + Pemetrexed; first compound 0.04 µM) | relative viability (VX-11e + Pemetrexed; first compound 0.1265 µM) | relative viability (VX-11e + Pemetrexed; first compound 0.4 µM) | relative viability (VX-11e + Pemetrexed; first compound 1.265 µM) | relative viability (VX-11e + Pemetrexed; first compound 4 µM) | relative viability (VX-11e + Alpelisib; first compound 0.4 µM) |
| --- | --- | --- | --- | --- | --- | --- | --- | --- | --- | --- | --- | --- | --- | --- | --- | --- | --- | --- | --- | --- |
| RERF-LC-KJ | 1.01 | 0.886 | 0.901 | 0.856 | 0.813 | 1.47 | 0.739 | 0.829 | 0.551 | 1.11 | 0.884 | 0.945 | 0.921 | 0.979 | 0.522 | 0.468 | 0.42 | 0.442 | 0.417 |  |
| PC-14 | 1.08 | 1.05 | 0.981 | 1.07 | 0.708 | 1.13 | 0.916 | 0.918 | 0.459 | 0.269 | 0.261 | 0.222 | 0.22 | 0.214 | 0.132 | 0.108 | 0.148 | 0.134 | 0.112 | 0.676 |
| NCI-H661 | 1.03 | 1.04 | 1.05 | 1.07 | 0.66 | 0.403 | 0.831 | 0.586 | 0.511 | 0.779 | 0.777 | 0.719 | 0.724 | 0.61 | 0.814 | 0.912 | 0.901 | 0.88 | 0.756 | 0.606 |
| EKVX | 0.765 | 0.927 | 0.812 | 0.675 | 0.466 | 0.953 | 0.869 | 0.752 | 0.335 | 0.836 | 0.834 | 0.713 | 0.94 | 0.451 | 0.314 | 0.444 | 0.33 | 0.383 | 0.225 | 0.984 |
| PC-3 [JPC-3] | 1.06 | 0.972 | 1.05 | 1.08 | 0.769 | 1.03 | 1.02 | 1.15 | 0.827 | 1.23 | 1.09 | 1.09 | 1.19 | 0.901 | 1.08 | 1.09 | 1.12 | 0.976 | 0.846 | 1 |
| NCI-H1355 | 0.93 | 0.94 | 0.933 | 0.883 | 0.543 | 0.725 | 0.687 | 0.572 | 0.302 | 0.735 | 0.759 | 0.655 | 0.554 | 0.395 | 0.904 | 0.99 | 0.99 | 1.01 | 0.526 | 0.88 |
| NCI-H1395 | 1.05 | 0.898 | 0.931 | 1 | 0.666 | 1.08 | 0.916 | 1.04 | 0.675 | 0.424 | 0.461 |  | 0.499 | 0.388 | 0.744 | 0.864 |  | 0.96 | 0.533 | 0.745 |
| NCI-H2023 | 0.811 | 0.771 |  | 0.513 | 0.42 | 0.59 | 0.611 | 0.458 | 0.257 | 0.541 | 0.45 | 0.507 | 0.475 | 0.346 | 0.224 | 0.241 | 0.225 | 0.145 | 0.157 | 0.572 |
| SK-LU-1 | 0.882 | 0.779 |  | 0.574 | 0.224 | 1.26 | 1.1 | 0.592 | 0.263 | 0.537 | 0.446 | 0.394 | 0.365 | 0.239 | 1.01 | 0.981 | 0.975 | 0.596 | 0.301 | 1.05 |
| SK-MES-1 | 1.03 | 0.881 | 0.857 | 1.02 | 0.419 | 1.31 | 0.815 | 0.644 | 0.208 | 0.732 | 0.636 | 0.826 | 0.493 | 0.265 | 0.903 | 0.921 | 0.818 | 0.553 | 0.42 | 0.718 |
| LCLC-97TM1 | 0.955 | 0.811 | 0.826 | 0.455 | 0.332 | 0.285 | 0.253 | 0.192 | 0.12 | 0.432 | 0.363 | 0.29 |  | 0.103 | 0.183 | 0.14 | 0.243 |  | 0.171 |  |
| NCI-H596 | 0.854 | 0.952 | 0.775 | 0.79 | 0.506 | 0.504 | 0.458 | 0.48 | 0.357 | 0.594 | 0.657 | 0.688 | 0.543 | 0.615 | 0.457 | 0.506 | 0.53 | 0.449 | 0.464 | 0.459 |
| NCI-H2126 | 1.21 | 1.22 | 1.01 | 1.1 | 0.903 |  | 0.755 | 0.68 | 0.578 | 0.885 | 0.874 | 0.864 | 0.879 | 0.751 | 0.554 | 0.621 | 0.399 | 0.567 | 0.517 | 0.747 |
| BEN |  | 0.633 | 0.966 | 0.451 | 0.557 | 1.14 | 0.906 | 0.612 | 0.806 | 1.04 | 0.935 | 1.11 | 0.904 | 0.994 | 0.491 | 0.69 | 0.875 | 0.582 | 0.629 | 1.04 |
| LCLC-103H | 0.867 | 0.694 | 0.858 | 0.656 | 0.67 | 1.06 | 0.905 | 0.828 | 0.819 | 0.787 | 0.748 | 0.719 | 0.638 | 0.667 | 0.442 | 0.437 | 0.53 | 0.417 | 0.493 | 0.861 |
| NCI-H1651 | 0.89 | 0.724 | 0.781 | 0.745 | 0.667 | 0.955 | 0.882 | 0.735 | 0.705 | 0.169 | 0.201 | 0.209 | 0.152 | 0.177 | 0.469 | 0.608 | 0.553 | 0.479 | 0.484 | 1 |
